TGI data for 13 compounds are collected here from PubChem BioAssay (NCI).

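Each compound was tested at five concentrations against cells in 96-well plates for 48 hours. Definition used: TGI = concentration required for complete inhibition of growth.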 Where a SMILES comes first, the peptide text is derived from it. The star is where a group is joined. Boc = CC(C)(C)OC(=O)* Some results are limits rather than exact numbers.

Common to all, as to assay: NCI tumour cell line growth inhibition, 48 h
Test [1] relates to CAKI-1 renal.
The test system of test [2] is LOX IMVI melanoma.
Test [3] deals with MALME-3M melanoma.
For test [4], the system named is OVCAR-5 ovarian.
The test system of test [5] is OVCAR-8 ovarian.
The subject of test [6] is PC-3 prostate.
Test [7] concerns SF-268 CNS.
In test [8] the test system is SNB-19 CNS.
Test [9] has as its system SNB-75 CNS.
Test [10] relates to UACC-257 melanoma.

Turning to `O=C1/C(=C/c2ccc(O)cc2)CCCC1CN1CCCCC1` (stereo not given), the TGI is 8.3 µM in test [1]; 3.09 µM in [2]; 3.36 µM in test [3]; 30.8 µM in [4]; 13.6 µM in [5]; 10 µM in test [6]. Further, the TGI in [7] worked out at 11.9 µM; in test [8] it was 31.8 µM; in test [9] it was 22.5 µM; in test [10], 6.72 µM.

As to `O=c1c2c3c(sc2nc2n1N=CN(c1ccccc1)C2)CCCC3`, the TGI in [1], in test [2], in test [3], in test [4], in test [5] and in test [6] was > 100 µM in each case. Also, the TGI in test [7], in test [8], in test [9] and in [10] was > 100 µM in each case.

On to `O=C(NC(=S)Nc1ccc([N+](=O)[O-])cc1)c1ccc2c(c1)Sc1ccccc1O2`, for which the TGI in [1], in test [2], in test [3], in [4], in test [5] and in test [6] was > 100 µM throughout. In addition, the TGI in [7] is > 100 µM; in test [8], > 100 µM; in test [9], 29.6 µM; in [10], > 100 µM.

`Cc1cc2nc3c(C#N)c4c(c(Nc5ccc(F)cc5)n3c2cc1C)CCC4`: the TGI in test [1], in test [2], in test [3], in [4], in test [5] and in test [6] was > 100 µM in each case. Also, the TGI in test [7], in test [8], in test [9] and in test [10] was > 100 µM in each case.

Regarding `CC(=O)C1=C(C)O[C@@H]2O[C@H](COCc3ccccc3)[C@@H](OCc3ccccc3)[C@H](O)[C@@H]2S1`, the TGI in test [1] was > 100 µM; in [2], 38.9 µM; in [3], 44.5 µM; in test [4], 84.1 µM; in test [5] it was 55.3 µM; in [6], 77.3 µM. The TGI was 32 µM in [7], > 100 µM in test [8], 77.1 µM in test [9] and 39.7 µM in [10].

On to `O[C@@H]1C[C@H](Cl)c2c(Cl)sc(Cl)c21`, for which the TGI in test [1], in test [2], in test [3], in test [4], in [5] and in test [6] was > 100 µM throughout. Besides, the TGI in [7], in test [8], in [9] and in test [10] was > 100 µM each time.

Consider `CCOP(=O)(CCCC(O)CNc1nc(N)nc(Cl)c1N=Nc1ccc(Cl)cc1)OCC` (stereo not given), for which the TGI in [1] was found to be 13.9 µM; in test [2] it was 13.8 µM; in test [3], 20.9 µM; in test [4], 25.5 µM; in test [5], 22.9 µM; in test [6], 16.7 µM. Also, the TGI in test [7] is 18.1 µM; in test [8], 22.8 µM; in [9], 11.1 µM; in [10], 18.1 µM.

`COc1cc(C2c3cc4c(cc3OC(NNC(N)=O)C2C)OCO4)cc(OC)c1OC` (stereo not given): the TGI in [1], in test [2], in test [3], in test [4], in test [5] and in test [6] was > 100 µM each time. For the same compound, the TGI in test [7] is > 100 µM; in [8] it was > 100 µM; in [9] it was > 87.9 µM; in [10], > 100 µM.

`COC(=O)C(Cc1ccccc1)NC(=O)C(CS)NC(=O)OC(C)(C)C` (stereo not drawn) (Boc-Cys-Phe-OMe; configuration not given here): the TGI in [1], in test [2], in [3], in test [4], in test [5] and in test [6] was > 100 µM in each case. For the same compound, the TGI in [7], in test [8], in [9] and in test [10] was > 100 µM each time.

For `CNC(=O)N(CCC#N)CCN(C(=O)NC)c1ccccc1`, the TGI in test [1], in test [2], in test [3], in [4], in [5] and in test [6] was > 100 µM each time. The TGI in test [7], in test [8], in test [9] and in [10] was > 100 µM each time.

As to `COc1cc(C2c3cc4c(cc3OC(NNc3ccccc3)C2C)OCO4)cc(OC)c1OC` (stereo not given), the TGI in [1] was > 73 µM; in test [2], > 37.8 µM; in [3], > 38.5 µM; in test [4] it was > 81 µM; in test [5], > 38.1 µM; in test [6] it was > 56.3 µM. The TGI in [7] was 38.1 µM; in test [8], > 31 µM; in test [9], > 62.7 µM; in test [10], > 100 µM.

Turning to `COc1ccccc1NC(=S)N=Nc1c(O)[nH]c2ccccc12`, the TGI in test [1], in test [2], in test [3], in [4], in [5] and in [6] was > 100 µM in each case. Also, the TGI is 13.5 µM in test [7], > 100 µM in [8], > 100 µM in test [9] and > 100 µM in test [10].

Take `Cn1c2ccc(F)cc2c2ccc3c(c21)C(=O)C=CC3=O`: the TGI was 11.8 µM in [1]; 22.8 µM in test [2]; 23.2 µM in test [3]; > 73.4 µM in test [4]; 26.1 µM in test [5]; 19.3 µM in test [6]. Besides, the TGI was 58.2 µM in test [7], > 100 µM in test [8], 97.8 µM in test [9] and 30.9 µM in [10].
